“And” between values parts separate entries of the source, which are not always exact repeats. Identical values can stand only once. Counter-ions that a name gives are not always drawn.
Experiments:
[1] = tested on: β-lactamase producing bacteria; assay: Test Example 3: MIC of meropenem (MEPM) combined with test compound at fixed 4 μg/mL, broth microdilution, ratio to MEPM alone; assay type: cell-based; details: for MIC of MEPM in combination with a test compound: test compound at fixed 4 μg/mL, numerator of the cell; for MIC of MEPM alone: no test compound, denominator of the cell, comparator for the example, in µg/mL
Description: Test Example 3: Evaluation of Minimum Inhibitory Concentration (MIC) of MEPM Against β-Lactamase Producing Bacteria
To evaluate the β-lactamase inhibitory activity of test compounds, the effect of combination of a test compound and a β-lactam agent against β-lactamase producing bacteria was evaluated. Meropenem (MEPM) was used as a β-lactam antimicrobial agent. The minimum inhibitory concentration (MIC) of MEPM against β-lactamase producing bacteria when a test compound was added at a fixed concentration (4 μg/mL) was measured by broth microdilution method (common ratio: 2).

[2] = tested on: β-lactamase producing bacteria; assay: Test Example 1: MIC of meropenem (MEPM) combined with test compound at fixed 4 μg/mL, broth microdilution; assay type: cell-based; details: relative to MEPM alone
Description: Test Example 1: Evaluation of Minimum Inhibitory Concentration (MIC) of MEPM Against β-Lactamase Producing Bacteria
To evaluate the β-lactamase inhibitory activity of test compounds, the effect of combination of a test compound and a β-lactam agent against β-lactamase producing bacteria was evaluated. Meropenem (MEPM) was used as a β-lactam antimicrobial agent. The minimum inhibitory concentration (MIC) of MEPM against β-lactamase producing bacteria when a test compound was added at a fixed concentration (4 μg/mL) was measured by broth microdilution method (common ratio: 2). MIC of MEPM decreasing to less than 1/32 in combination with a test compound is indicated by A, decreasing from 1/32 to 1/16 is indicated by B, decreasing from ⅛ to ¼ is indicated by C, and decreasing to ½ or others are indicated by D. “-” represents untested cases.

[3] = K. pneumoniae ATCC BAA-2344 (KPC)
[4] = K. pneumoniae ATCC BAA-2524 (OXA-48)

Row | Molecule | Decrease of MIC of MEPM in combination with a test compound, K. pneumoniae ATCC BAA-2344 (KPC) [2] | Decrease of MIC of MEPM in combination with a test compound, K. pneumoniae ATCC BAA-2524 (OXA-48) [2] | further results
1 | 4,4-dihydroxy-8-({1-[3-(pyrrolidin-2-yl)propanoyl]azetidin-3-yl}oxy)-5-oxa-4-boranuidabicyclo[4.4.0]deca-l(6),7,9-triene-7-carboxylic acid disodium salt [Example 118] | – | – | MIC of MEPM in combination with a test compound [1, 3]: ≤ 0.063 µg/mL; MIC of MEPM in combination with a test compound [1, 4]: ≤ 0.063 µg/mL
2 | N[C@H](Cc1ccccc1)C(=O)N1CC(Oc2ccc3c(c2C(=O)O)O[B-](O)(O)CC3)C1 [Example 25, 4,4-dihydroxy-8-[(1-D-phenylalanylazetidin-3-yl)oxy]-5-oxa-4-boranuidabicyclo[4.4.0]deca-l(6),7,9-triene-7-carboxylic acid disodium salt] | A (MIC of MEPM decreasing to less than 1/32 in combination with a test compound is indicated by A) | B (decreasing from 1/32 to 1/16 is indicated by B) | Decrease of MIC of MEPM in combination with a test compound, E. coli ATCC BAA-2340 (KPC) [2]: A (MIC of MEPM decreasing to less than 1/32 in combination with a test compound is indicated by A)
3 | N[C@H](Cc1ccc(O)cc1)C(=O)N1CC(Oc2ccc3c(c2C(=O)O)O[B-](O)(O)CC3)C1 [Example 26, 4,4-dihydroxy-8-[(1-D-tyrosylazetidin-3-yl)oxy]-5-oxa-4-boranuidabicyclo[4.4.0]deca-l(6),7,9-triene-7-carboxylic acid disodium salt] | A (MIC of MEPM decreasing to less than 1/32 in combination with a test compound is indicated by A) | A (MIC of MEPM decreasing to less than 1/32 in combination with a test compound is indicated by A) | Decrease of MIC of MEPM in combination with a test compound, E. coli ATCC BAA-2340 (KPC) [2]: A (MIC of MEPM decreasing to less than 1/32 in combination with a test compound is indicated by A)
4 | N[C@H](Cc1cnc[nH]1)C(=O)N1CC(Oc2ccc3c(c2C(=O)O)O[B-](O)(O)CC3)C1 [Example 27, 8-[(1-D-histidylazetidin-3-yl)oxy]-4,4-dihydroxy-5-oxa-4-boranuidabicyclo[4.4.0]deca-l(6),7,9-triene-7-carboxylic acid disodium salt] | A (MIC of MEPM decreasing to less than 1/32 in combination with a test compound is indicated by A) | B (decreasing from 1/32 to 1/16 is indicated by B) | –
5 | CC(C)[C@@H](N)C(=O)N1CC(Oc2ccc3c(c2C(=O)O)O[B-](O)(O)CC3)C1 [Example 28, 4,4-dihydroxy-8-[(1-D-valylazetidin-3-yl)oxy]-5-oxa-4-boranuidabicyclo[4.4.0]deca-l(6),7,9-triene-7-carboxylic acid disodium salt] | A (MIC of MEPM decreasing to less than 1/32 in combination with a test compound is indicated by A) | B (decreasing from 1/32 to 1/16 is indicated by B) | Decrease of MIC of MEPM in combination with a test compound, E. coli ATCC BAA-2340 (KPC) [2]: A (MIC of MEPM decreasing to less than 1/32 in combination with a test compound is indicated by A)
6 | N[C@@H](Cc1cnc[nH]1)C(=O)N1CC(Oc2ccc3c(c2C(=O)O)O[B-](O)(O)CC3)C1 [Example 29, 8-[(1-L-histidylazetidin-3-yl)oxy]-4,4-dihydroxy-5-oxa-4-boranuidabicyclo[4.4.0]deca-l(6),7,9-triene-7-carboxylic acid disodium salt] | A (MIC of MEPM decreasing to less than 1/32 in combination with a test compound is indicated by A) | B (decreasing from 1/32 to 1/16 is indicated by B) | –
7 | CCN1CCN(C(=O)N[C@@H](C(=O)N2CC(Oc3ccc4c(c3C(=O)O)O[B-](O)(O)CC4)C2)c2ccccc2)C(=O)C1=O [Example 30, 8-[(1-{(2R)-2-[(4-ethyl-2,3-dioxopiperazine-1-carbonyl)amino]-2-phenylacetyl}azetidin-3-yl)oxy]-4,4-dihydroxy-5-oxa-4-boranuidabicyclo[4.4.0]deca-l(6),7,9-triene-7-carboxylic acid disodium salt] | A (MIC of MEPM decreasing to less than 1/32 in combination with a test compound is indicated by A) | B (decreasing from 1/32 to 1/16 is indicated by B) | –
8 | O=C(O)c1c(OC2CN(C(=O)[C@H]3CCCN3)C2)ccc2c1O[B-](O)(O)CC2 [Example 31, 4,4-dihydroxy-8-[(1-D-prolylazetidin-3-yl)oxy]-5-oxa-4-boranuidabicyclo[4.4.0]deca-l(6),7,9-triene-7-carboxylic acid disodium salt] | A (MIC of MEPM decreasing to less than 1/32 in combination with a test compound is indicated by A) | B (decreasing from 1/32 to 1/16 is indicated by B) | –
9 | O=C(O)c1c(OC2CN(C(=O)[C@@H]3CCCN3)C2)ccc2c1O[B-](O)(O)CC2 [Example 32, 4,4-dihydroxy-8-[(1-L-prolylazetidin-3-yl)oxy]-5-oxa-4-boranuidabicyclo[4.4.0]deca-l(6),7,9-triene-7-carboxylic acid disodium salt] | A (MIC of MEPM decreasing to less than 1/32 in combination with a test compound is indicated by A) | B (decreasing from 1/32 to 1/16 is indicated by B) | –
10 | NCCc1cn(CC(=O)N2CC(Oc3ccc4c(c3C(=O)O)O[B-](O)(O)CC4)C2)cn1 [Example 33, 8-[(1-{[4-(2-aminoethyl)-1H-imidazol-1-yl]acetyl}azetidin-3-yl)oxy]-4,4-dihydroxy-5-oxa-4-boranuidabicyclo[4.4.0]deca-l(6),7,9-triene-7-carboxylic acid disodium salt] | A (MIC of MEPM decreasing to less than 1/32 in combination with a test compound is indicated by A) | B (decreasing from 1/32 to 1/16 is indicated by B) | –
11 | O=C(O)c1c(OC2CN(C(=O)c3ccc(O)c(O)c3)C2)ccc2c1OB(O)CC2 [Example 34, 7-{[1-(3,4-dihydroxybenzoyl)azetidin-3-yl]oxy}-2-hydroxy-3,4-dihydro-2H-1,2-benzoxaborinine-8-carboxylic acid] | A (MIC of MEPM decreasing to less than 1/32 in combination with a test compound is indicated by A) | B (decreasing from 1/32 to 1/16 is indicated by B) | –
12 | O=C(O)c1c(OC2CN(C(=O)NO)C2)ccc2c1OB(O)CC2 [Example 35, 2-hydroxy-7-{[1-(hydroxycarbamoyl)azetidin-3-yl]oxy}-3,4-dihydro-2H-1,2-benzoxaborinine-8-carboxylic Acid] | A (MIC of MEPM decreasing to less than 1/32 in combination with a test compound is indicated by A) | B (decreasing from 1/32 to 1/16 is indicated by B) | Decrease of MIC of MEPM in combination with a test compound, E. coli ATCC BAA-2340 (KPC) [2]: A (MIC of MEPM decreasing to less than 1/32 in combination with a test compound is indicated by A)
13 | Cl.Cl.NC(C(=O)N1CC(Oc2ccc3c(c2C(=O)O)OB(O)CC3)C1)c1c[nH]cn1 (stereo not shown) [Example 40, 7-({1-[2-amino-2-(1H-imidazol-4-yl)(2H)ethanoyl]azetidin-3-yl}oxy)-2-hydroxy-3,4-dihydro-2H-1,2-benzoxaborinine-8-carboxylic Acid Dihydrochloride] | – | – | MIC of MEPM in combination with a test compound [1, 3]: 0.063 µg/mL; MIC of MEPM in combination with a test compound [1, 4]: 0.063 µg/mL
14 | O=C(O)c1c(OC2CN(C(=O)C[C@@H]3CCCN3)C2)ccc2c1O[B-](O)(O)CC2.O=C(O)c1c(OC2CN(C(=O)C[C@@H]3CCCN3)C2)ccc2c1O[B-](O)(O)CC2.[Na+].[Na+] [Example 127, 4,4-dihydroxy-8-[(1-{[(2S)-pyrrolidin-2-yl]acetyl}azetidin-3-yl)oxy]-5-oxa-4-boranuidabicyclo[4.4.0]deca-l(6),7,9-triene-7-carboxylic acid disodium salt] | – | – | MIC of MEPM in combination with a test compound [1, 3]: ≤ 0.063 µg/mL; MIC of MEPM in combination with a test compound [1, 4]: ≤ 0.063 µg/mL
15 | C[C@@H](O)[C@H]1C(=O)N2C(C(=O)O)=C(S[C@@H]3CN[C@H](C(=O)N(C)C)C3)[C@H](C)[C@H]12 [MEPM, meropenem, reference compound] | – | – | MIC of MEPM alone ([1]; E. coli ATCC BAA-2340 (KPC)): 4 and 8; MIC of MEPM alone [1, 4]: 2 and 1

From patent US11066425B1, “Oxo-substituted compound” (SUMITOMO DAINIPPON PHARMA CO., LTD., priority 2018, dated 2021)
